Data: PubChem BioAssay (NCI)
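Protocol summary: plate cells (96-well), add compound at 5 concentrations, incubate 48 h, interpolate endpoints linearly. The concentration for 50% growth inhibition is given as GI50. The concentration for full growth arrest is given as TGI.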

How the values were obtained:
Test in all cases: inhibition of tumour cell growth, NCI panel, 48 h; in the data active means GI50 below about 0.43 µM; inactive means the rest
[1] = test system: SN12C renal
[2] = test system: UACC-257 melanoma
[3] = test system: A498 renal
[4] = test system: CCRF-CEM leukemia
[5] = test system: UACC-62 melanoma
[6] = test system: HCC-2998 colon
[7] = test system: BT-549 breast
[8] = test system: SF-268 CNS
[9] = test system: DU-145 prostate
[10] = test system: CAKI-1 renal
[11] = test system: SNB-19 CNS
[12] = test system: SK-MEL-5 melanoma
[13] = test system: 786-0 renal
[14] = test system: EKVX NSCLC
[15] = test system: HCT-116 colon
[16] = test system: PC-3 prostate
[17] = test system: K-562 leukemia
[18] = test system: A549 NSCLC
[19] = test system: HL-60(TB) leukemia
[20] = test system: HT29 colon
[21] = test system: SNB-75 CNS
[22] = test system: IGROV1 ovarian
[23] = test system: OVCAR-4 ovarian
[24] = test system: MDA-MB-435
[25] = test system: MCF7 breast
[26] = test system: ACHN renal
[27] = test system: SW-620 colon
[28] = test system: UO-31 renal

C/C(=N\NC(=O)CSc1nc2sc3c(c2c(=O)n1-c1ccccc1)CCC(C)C3)c1ccc(Cl)cc1 (stereo unspecified)
13.7 µM: TGI [21]
66.1 µM: TGI [24]
38.1 µM: TGI [13]
13.3 µM: TGI [20]
19.5 µM: TGI [12]
> 100 µM: TGI [1] | TGI [3] | TGI [4] | TGI [5] | TGI [6] | TGI [8] | TGI [9] | TGI [10] | TGI [11] | TGI [14] | TGI [15] | TGI [16] | TGI [17] | TGI [18] | TGI [19] | TGI [22] | TGI [23] | TGI [25] | TGI [26] | TGI [27]
inactive: GI50 [1] 3.4 µM | GI50 [2] 16.1 µM | GI50 [3] > 100 µM | GI50 [4] 0.742 µM | GI50 [5] 3.57 µM | GI50 [6] 2.76 µM | GI50 [7] 3.6 µM | GI50 [8] 3.73 µM | GI50 [9] 3.63 µM | GI50 [10] 2.04 µM | GI50 [11] 4.89 µM | GI50 [12] 4.8 µM | GI50 [14] 5.08 µM | GI50 [15] 0.578 µM | GI50 [16] 3.26 µM | GI50 [17] 0.592 µM | GI50 [18] 2.57 µM | GI50 [19] 1.51 µM | GI50 [20] 3.13 µM | GI50 [21] 2.55 µM | GI50 [22] 2.82 µM | GI50 [23] 2.2 µM | GI50 [24] 3.86 µM | GI50 [25] 0.439 µM | GI50 [26] 1.7 µM | GI50 [27] 3.26 µM | GI50 [28] 2.11 µM
15.8 µM: TGI [28]
26.5 µM: TGI [7]
active: GI50 [13] 0.366 µM
95.1 µM: TGI [2]
